“And” between values parts separate entries of the source, which are not always exact repeats. Equal entries are not always repeated.
Each compound was assayed against T1, Recombinant human Src enzyme (Homo sapiens, UniProt P12931) (assay: Src Kinase Assay (LANCE FRET)). Details: 100 μM ATP; multiple entries = tested multiple times; read-out: Src enzyme IC50.
T1 construct: purchased PanVera P3044
Format: biochemical
Description: Recombinant human Src enzyme was obtained from PanVera (P3044). […] Homogeneous fluorescence resonance energy transfer kinase assays were performed using the europium/APC detection format (LANCE, Perkin Elmer). Src enzyme (10 ng) was mixed with biotinylated peptide (final concentration 2 μM), 50 mM Hepes (pH 7.5), 10 mM MgCl2, 20 ug/ml BSA, 0.001% Brij-35 (Sigma), 100 μM ATP, 1% DMSO. The kinase reaction was incubated for 70 min at 37° C. The reaction was stopped with EDTA at a final concentration of 30 mM EDTA/25 mM Hepes (pH 7.5)/10 μg/ml BSA. The mixture was combined with Eu-labeled anti-phosphotyrosine antibody PT66 (Perkin Elmer, AD0068) and Streptavidin Surelight-APC (Perkin Elmer, CR130-100) in 50 mM Hepes (pH 7.5)/20 μg/ml BSA, and incubated for 30 min according to manufacturer's specifications. […] Multiple entries for a given compound indicate that it was tested multiple times.

T1 sequence (P12931 whole entry): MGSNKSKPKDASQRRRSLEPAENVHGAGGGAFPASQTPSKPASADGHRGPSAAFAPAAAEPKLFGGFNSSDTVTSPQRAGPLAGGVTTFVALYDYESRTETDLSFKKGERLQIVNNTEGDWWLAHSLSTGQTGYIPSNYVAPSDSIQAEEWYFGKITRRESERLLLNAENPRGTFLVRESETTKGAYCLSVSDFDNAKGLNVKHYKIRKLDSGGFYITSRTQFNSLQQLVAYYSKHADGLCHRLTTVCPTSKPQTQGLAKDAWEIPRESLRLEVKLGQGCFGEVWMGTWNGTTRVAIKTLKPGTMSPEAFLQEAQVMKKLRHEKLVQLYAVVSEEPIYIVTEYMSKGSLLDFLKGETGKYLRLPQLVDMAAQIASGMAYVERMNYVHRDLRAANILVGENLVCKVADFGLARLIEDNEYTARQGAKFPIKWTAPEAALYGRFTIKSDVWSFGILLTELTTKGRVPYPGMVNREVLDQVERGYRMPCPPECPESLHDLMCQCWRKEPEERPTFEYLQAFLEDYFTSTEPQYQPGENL

Structure (SMILES)	IC50
COc1cc(Nc2c(C#N)cnc3cc(-c4coc(CN5CCN(c6ccc(C(F)(F)F)cc6)CC5)c4)c(OC)cc23)c(Cl)cc1Cl [Example 25, 4-[(2,4-dichloro-5-methoxyphenyl)amino]-6-methoxy-7-[5-({4-[4-(trifluoromethyl)phenyl]piperazin-1-yl}methyl)-3-furyl]quinoline-3-carbonitrile]	14.1 nM and 14.4 nM
COc1cc(Nc2c(C#N)cnc3cc(-c4coc(CN5CCSCC5)c4)c(OC)cc23)c(Cl)cc1Cl [Example 26, 4-[(2,4-dichloro-5-methoxyphenyl)amino]-6-methoxy-7-[5-(thiomorpholin-4-ylmethyl)-3-furyl]quinoline-3-carbonitrile]	9.1 nM and 7.8 nM
COc1cc(Nc2c(C#N)cnc3cc(-c4coc(CN(C)CCN(C)C)c4)c(OC)cc23)c(Cl)cc1Cl [Example 27, 4-[(2,4-dichloro-5-methoxyphenyl)amino]-7-(5-{[[2-(dimethylamino)ethyl](methyl)amino]methyl}-3-furyl)-6-methoxyquinoline-3-carbonitrile]	3.2 nM and 2.5 nM
COc1cc(Nc2c(C#N)cnc3cc(-c4coc(CN5CCCC5)c4)c(OC)cc23)c(Cl)cc1Cl [Example 6, 4-[(2,4-dichloro-5-methoxyphenyl)amino]-6-methoxy-7-[5-(pyrrolidin-1-ylmethyl)-3-furyl]quinoline-3-carbonitrile]	0.8 nM and 0.9 nM
COc1cc(Nc2c(C#N)cnc3cc(-c4coc(CN5CCN(CCN6CCOCC6)CC5)c4)c(OC)cc23)c(Cl)cc1Cl [Example 13, 4-[(2,4-dichloro-5-methoxyphenyl)amino]-6-methoxy-7-(5-{[4-(2-morpholin-4-ylethyl)piperazin-1-yl]methyl}-3-furyl)quinoline-3-carbonitrile]	1 nM
CCN(CC)Cc1cc(-c2cc3ncc(C#N)c(Nc4cc(OC)c(Cl)cc4Cl)c3cc2OC)co1 [Example 8, 4-[(2,4-dichloro-5-methoxyphenyl)amino]-7-{5-[(diethylamino)methyl]-3-furyl}-6-methoxyquinoline-3-carbonitrile]	0.9 nM and 0.8 nM
CCCCN1CCN(Cc2cc(-c3cc4ncc(C#N)c(Nc5cc(OC)c(Cl)cc5Cl)c4cc3OC)co2)CC1 [Example 12, 7-{5-[(4-butylpiperazin-1-yl)methyl]-3-furyl}-4-[(2,4-dichloro-5-methoxyphenyl)amino]-6-methoxyquinoline-3-carbonitrile]	2.5 nM and 2.1 nM
COc1cc(Nc2c(C#N)cnc3cc(-c4coc(CN5CCS(=O)(=O)CC5)c4)c(OC)cc23)c(Cl)cc1Cl [Example 17, 4-[(2,4-dichloro-5-methoxyphenyl)amino]-7-{5-[(1,1-dioxidothiomorpholin-4-yl)methyl]-3-furyl}-6-methoxyquinoline-3-carbonitrile]	2.4 nM and 2.1 nM
COc1cc(Nc2c(C#N)cnc3cc(-c4coc(CN5CCN(CCc6ccccc6)CC5)c4)c(OC)cc23)c(Cl)cc1Cl [Example 15, 4-[(2,4-dichloro-5-methoxyphenyl)amino]-6-methoxy-7-(5-{[4-(2-phenylethyl)piperazin-1-yl]methyl}-3-furyl)quinoline-3-carbonitrile]	18.3 nM and 13.3 nM
COc1cc(Nc2c(C#N)cnc3cc(-c4coc(CN5CCN(C6CCCCC6)CC5)c4)c(OC)cc23)c(Cl)cc1Cl [Example 19, 7-{5-[(4-cyclohexylpiperazin-1-yl)methyl]-3-furyl}-4-[(2,4-dichloro-5-methoxyphenyl)amino]-6-methoxyquinoline-3-carbonitrile]	3.6 nM and 2.8 nM
COc1cc(Nc2c(C#N)cnc3cc(-c4coc(CN5CCN(C6CCN(C)CC6)CC5)c4)c(OC)cc23)c(Cl)cc1Cl [Example 10, 4-[(2,4-dichloro-5-methoxyphenyl)amino]-6-methoxy-7-(5-{[4-(1-methylpiperidin-4-yl)piperazin-1-yl]methyl}-3-furyl)quinoline-3-carbonitrile]	0.5 nM
COc1cc(Nc2c(C#N)cnc3cc(-c4coc(CN5CCCN(C)CC5)c4)c(OC)cc23)c(Cl)cc1Cl [Example 29, 4-[(2,4-dichloro-5-methoxyphenyl)amino]-6-methoxy-7-{5-[(4-methyl-1,4-diazepan-1-yl)methyl]-3-furyl}quinoline-3-carbonitrile]	1.3 nM and 1 nM
COc1cc(Nc2c(C#N)cnc3cc(-c4coc(CN5CCC(N6CCCC6)CC5)c4)c(OC)cc23)c(Cl)cc1Cl [Example 11, 4-[(2,4-dichloro-5-methoxyphenyl)amino]-6-methoxy-7-{5-[(4-pyrrolidin-1-ylpiperidin-1-yl)methyl]-3-furyl}quinoline-3-carbonitrile]	1.1 nM and 1 nM
CCCN(CCC)Cc1cc(-c2cc3ncc(C#N)c(Nc4cc(OC)c(Cl)cc4Cl)c3cc2OC)co1 [Example 16, 4-[(2,4-dichloro-5-methoxyphenyl)amino]-7-{5-[(dipropylamino)methyl]-3-furyl]-6-methoxyquinoline-3-carbonitrile]	10.2 nM and 6.5 nM
COc1cc(Nc2c(C#N)cnc3cc(-c4coc(CN5CCN(c6c(C)cccc6C)CC5)c4)c(OC)cc23)c(Cl)cc1Cl [Example 35, 4-[(2,4-dichloro-5-methoxyphenyl)amino]-7-(5-{[4-(2,6-dimethylphenyl)piperazin-1-yl]methyl}-3-furyl)-6-methoxyquinoline-3-carbonitrile]	3.2 nM and 5.6 nM
COCCN(C)Cc1cc(-c2cc3ncc(C#N)c(Nc4cc(OC)c(Cl)cc4Cl)c3cc2OC)co1 [Example 32, 4-[(2,4-dichloro-5-methoxyphenyl)amino]-6-methoxy-7-(5-{[(2-methoxyethyl)(methyl)amino]methyl}-3-furyl)quinoline-3-carbonitrile]	2.9 nM and 2.6 nM
COc1cc(Nc2c(C#N)cnc3cc(-c4coc(CN5CCN(C(C)C)CC5)c4)c(OC)cc23)c(Cl)cc1Cl [Example 28, 4-[(2,4-dichloro-5-methoxyphenyl)amino]-7-{5-[(4-isopropylpiperazin-1-yl)methyl]-3-furyl}-6-methoxyquinoline-3-carbonitrile]	1 nM and 0.7 nM
CCN(CC)CCCN1CCN(Cc2cc(-c3cc4ncc(C#N)c(Nc5cc(OC)c(Cl)cc5Cl)c4cc3OC)co2)CC1 [Example 33, 4-[(2,4-dichloro-5-methoxyphenyl)amino]-7-[5-({4-[3-(diethylamino)propyl]piperazin-1-yl}methyl)-3-furyl]-6-methoxyquinoline-3-carbonitrile]	2 nM
COc1ccc(N2CCN(Cc3cc(-c4cc5ncc(C#N)c(Nc6cc(OC)c(Cl)cc6Cl)c5cc4OC)co3)CC2)cc1 [Example 20, 4-[(2,4-dichloro-5-methoxyphenyl)amino]-6-methoxy-7-(5-{[4-(4-methoxyphenyl)piperazin-1-yl]methyl}-3-furyl)quinoline-3-carbonitrile]	10 nM and 11.7 nM
COc1cc(Nc2c(C#N)cnc3cc(-c4coc(CN5CCN(Cc6ccncc6)CC5)c4)c(OC)cc23)c(Cl)cc1Cl [Example 34, 4-[(2,4-dichloro-5-methoxyphenyl)amino]-6-methoxy-7-(5-{[4-(pyridin-4-ylmethyl)piperazin-1-yl]methyl}-3-furyl)quinoline-3-carbonitrile]	2.5 nM and 3 nM
COc1cc(Nc2c(C#N)cnc3cc(-c4coc(CN5CCN(c6ccc(Cl)cc6)CC5)c4)c(OC)cc23)c(Cl)cc1Cl [Example 23, 7-(5-{[4-(4-chlorophenyl)piperazin-1-yl]methyl}-3-furyl)-4-[(2,4-dichloro-5-methoxyphenyl)amino]-6-methoxyquinoline-3-carbonitrile]	18.9 nM and 17 nM
CCN1CCN(Cc2cc(-c3cc4ncc(C#N)c(Nc5cc(OC)c(Cl)cc5Cl)c4cc3OC)co2)CC1 [Example 9, 4-[(2,4-dichloro-5-methoxyphenyl)amino]-7-{5-[(4-ethylpiperazin-1-yl)methyl]-3-furyl}-6-methoxyquinoline-3-carbonitrile]	0.6 nM and 0.7 nM
COc1cc(Nc2c(C#N)cnc3cc(-c4coc(CN5CCN(c6ccncc6)CC5)c4)c(OC)cc23)c(Cl)cc1Cl [Example 21, 4-[(2,4-dichloro-5-methoxyphenyl)amino]-6-methoxy-7-[5-[(4-pyridin-4-ylpiperazin-1-yl)methyl]-3-furyl}quinoline-3-carbonitrile]	2.2 nM and 1.9 nM
COc1cc(Nc2c(C#N)cnc3cc(-c4coc(CN5CCN(CCO)CC5)c4)c(OC)cc23)c(Cl)cc1Cl [Example 31, 4-[(2,4-dichloro-5-methoxyphenyl)amino]-7-(5-{[4-(2-hydroxyethyl)piperazin-1-yl]methyl}-3-furyl)-6-methoxyquinoline-3-carbonitrile]	1.9 nM and 1.8 nM
COc1cc(Nc2c(C#N)cnc3cc(-c4coc(CN5CCN(c6ccc(O)cc6)CC5)c4)c(OC)cc23)c(Cl)cc1Cl [Example 24, 4-[(2,4-dichloro-5-methoxyphenyl)amino]-7-(5-{[4-(4-hydroxyphenyl)piperazin-1-yl]methyl}-3-furyl)-6-methoxyquinoline-3-carbonitrile]	6 nM and 5.6 nM
COc1cc(Nc2c(C#N)cnc3cc(-c4coc(CN5CCN(Cc6ccccc6)CC5)c4)c(OC)cc23)c(Cl)cc1Cl [Example 14, 7-{5-[(4-benzylpiperazin-1-yl)methyl]-3-furyl}-4-[(2,4-dichloro-5-methoxyphenyl)amino]-6-methoxyquinoline-3-carbonitrile]	33.7 nM and 56.2 nM

Same assay, conditions: Src enzyme IC50, 100 μM ATP; multiple entries = tested multiple times

Structure (SMILES)	IC50 [nM]
COc1cc(Nc2c(C#N)cnc3cc(-c4coc(CN5CCCCC5)c4)c(OC)cc23)c(Cl)cc1Cl [Example 7, 4-[(2,4-dichloro-5-methoxyphenyl)amino]-6-methoxy-7-[5-(piperidin-1-ylmethyl)-3-furyl]quinoline-3-carbonitrile]	0.7

— patent US7479561B2, “4-(2,4-dichloro-5-methoxyphenyl)amino-6-methoxy-7-{[5-substituted-amino)methyl]-3-furyl}-3-quinolinecarbonitriles as kinase inhibitors” (Wyeth, priority 2004, dated 2009)
